According to PMC5318888, “SAMHD1 enhances nucleoside-analogue efficacy against HIV-1 in myeloid cells” (Scientific Reports, 2017):

Molecular target: T1, SAMHD1 (Homo sapiens, UniProt Q9Y3Z3)
T1 construct: The final concentrations were 100 nM SAMHD1(115–626), 10 nM Ppx1; strep-tag; made in house
Assay: SAMHD1 triphosphohydrolase continuous coupled-enzyme assay (MDCC-PBP phosphate biosensor, Ppx1)
Format: biochemical
Conditions: for inhibition of SAMHD1 GTP-activated TTP hydrolysis / activation of SAMHD1 TTP hydrolysis: 0.3 mM TTP; for inhibition of SAMHD1 GTP-activated TTP hydrolysis: 0.1 mM GTP; for inhibition of SAMHD1 GTP-activated TTP hydrolysis / hydrolysis by SAMHD1 (substrate): 0.3 mM analogue triphosphate; for activation of SAMHD1 TTP hydrolysis: 0.1 mM analogue triphosphate as activator; for hydrolysis by SAMHD1 (substrate): without and with 0.1 mM GTP
Description: SAMHD1 hydrolysis, activation and inhibition by nucleotide analogues was quantified using a continuous coupled assay employing the fluorescent phosphate biosensor MDCC-PBP to measure phosphate release from combined SAMHD1 triphosphohydrolase and S. cerevisiae Ppx1 exopolyphosphatase activity, described previously. SAMHD1 and Ppx1 were expressed as strep-tagged fusion proteins and purified as described previously. Didanosine triphosphate (ddI-TP) and dideoxy ATP (ddATP) were from Trilink Biotechnologies, Stavudine triphosphate (d4T-TP) was from Jena biosciences and Chemcyte. Abacavir triphosphate and Carbovir triphosphate were chemically synthesised in house from abacavir and carbovir as described above. Experiments were performed in 20 μL reaction volumes in 384-well low-protein-binding microplates (Corning, USA). In typical experiments, solutions containing SAMHD1, Ppx1, MDCC-PBP and activator (GTP, ddI-TP or d4T-TP), or activator plus inhibitor, were incubated for 5 min in assay buffer (20 mM Tris pH 8.0, 150 mM NaCl, 5 mM MgCl2 and 2 mM TCEP) at 25 °C before the reaction was initiated by the addition of substrate (TTP, ddI-TP or d4T-TP). The final concentrations were 100 nM SAMHD1(115–626), 10 nM Ppx1, 2.5 μM BSA, 40 μM MDCC-PBP (80 μM in ABC-TP and CBV-TP assays). Activator, substrate and inhibitor were added at concentrations described below. The fluorescence intensity increase resulting from the phosphate-product binding to MDCC-PBP was recorded at 430 nm excitation and 465 nm emission over 10–30 min in a Clariostar multiwell plate reader (BMG). Steady-state rates were obtained from the fluorescence time courses by fitting a linear function with maximal slope using the Mars software (BMG). Apparent dissociation constant of ddI-TP binding (KS), catalytic constant (kcat), maximal rate (kmax) and the ddI-TP concentration at half maximal activation (Ka) were determined by nonlinear least squares fitting using a Hill-function in the software package Grafit 7.0.3 (Erithacus software, UK). All measurements were performed at least in triplicate and data are represented as mean ± SEM.

[1] = 1 mM TTP, varying ddI-TP, lower estimate
[2] = Hill equation fit, 0.2 mM GTP, mean ± SEM

T1 sequence (Q9Y3Z3 115-626): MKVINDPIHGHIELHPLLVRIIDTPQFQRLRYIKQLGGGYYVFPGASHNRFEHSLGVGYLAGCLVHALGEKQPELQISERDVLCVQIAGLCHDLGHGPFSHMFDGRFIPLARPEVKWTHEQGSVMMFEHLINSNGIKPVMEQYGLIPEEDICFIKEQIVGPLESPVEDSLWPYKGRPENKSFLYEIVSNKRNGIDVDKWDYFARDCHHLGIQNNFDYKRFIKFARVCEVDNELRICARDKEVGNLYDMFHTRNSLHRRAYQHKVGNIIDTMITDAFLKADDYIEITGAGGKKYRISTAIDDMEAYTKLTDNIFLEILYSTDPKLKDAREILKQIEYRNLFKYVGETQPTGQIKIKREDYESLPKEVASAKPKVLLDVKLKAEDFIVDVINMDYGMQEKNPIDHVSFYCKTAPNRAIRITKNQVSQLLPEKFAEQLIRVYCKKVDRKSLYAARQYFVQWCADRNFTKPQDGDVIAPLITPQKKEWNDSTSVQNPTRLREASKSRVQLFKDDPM

| Compound | inhibition of SAMHD1 GTP-activated TTP hydrolysis | activation of SAMHD1 TTP hydrolysis | hydrolysis by SAMHD1 (substrate) | increase of ddI-TP hydrolysis in the presence of activating GTP (0.3 mM ddI-TP, 0.1 mM GTP vs no GTP) | Ka, ddI-TP concentration at half maximal activation of TTP hydrolysis [1] [µM] | maximal rate kmax of TTP hydrolysis activated by ddI-TP [1] [s⁻¹] | apparent binding constant KS of ddI-TP hydrolysis (Hill equation fit, 0.2 mM GTP (saturating activator), mean ± SEM) [µM] | Hill coefficient n of ddI-TP hydrolysis [2] | catalytic constant kcat of ddI-TP hydrolysis [2] [s⁻¹] | ddI-TP hydrolysis rate relative to TTP hydrolysis rate (fold slower) (in the presence of 0.1 mM GTP) |
| --- | --- | --- | --- | --- | --- | --- | --- | --- | --- | --- |
| Nc1nc(NC2CC2)c2ncn([C@H]3C=C[C@@H](COP(=O)(O)OP(=O)(O)OP(=O)(O)O)C3)c2n1 [ABC-TP, abacavir-5′-triphosphate] | neither ABC-TP nor CBV-TP displayed any activation or inhibition of SAMHD1 | neither ABC-TP nor CBV-TP displayed any activation or inhibition of SAMHD1 | not hydrolysed by SAMHD1 |  |  |  |  |  |  |  |
| Cc1cn([C@H]2C=C[C@@H](COP(=O)(O)OP(=O)(O)OP(=O)(O)O)O2)c(=O)[nH]c1=O [d4T-TP, stavudine triphosphate] | not a SAMHD1 inhibitor or activator | not a SAMHD1 inhibitor or activator | little or no hydrolytic activity |  |  |  |  |  |  |  |
| Nc1nc(=O)c2ncn([C@H]3C=C[C@@H](COP(=O)(O)OP(=O)(O)OP(=O)(O)O)C3)c2[nH]1 [CBV-TP, Carbovir 5′-triphosphate] | neither ABC-TP nor CBV-TP displayed any activation or inhibition of SAMHD1 | neither ABC-TP nor CBV-TP displayed any activation or inhibition of SAMHD1 | not hydrolysed by SAMHD1 |  |  |  |  |  |  |  |
| O=c1[nH]cnc2c1ncn2[C@H]1CC[C@@H](COP(=O)(O)OP(=O)(O)OP(=O)(O)O)O1 [ddI-TP, didanosine triphosphate] | no significant inhibitory effects | activates SAMHD1 triphosphohydrolase activity, but to a much lesser degree than the natural activator, GTP | hydrolysed by SAMHD1 even in the absence of GTP | three-fold | > 300 | > 0.1 | 226 ± 12 | 1.7 ± 0.1 | 0.24 ± 0.04 | around six-fold |
| Nc1ncnc2c1ncn2[C@H]1CC[C@@H](CO[P@@](=O)(O)O[P@](=O)(O)OP(=O)(O)O)O1 [ddATP, dideoxy ATP] | no measurable activation or inhibition | no measurable activation or inhibition | no hydrolysis by SAMHD1 |  |  |  |  |  |  |  |
